The test system of assay [1] is MMP1. Particulars: UO126 10 μM, SP600125 25 μM, SB203580 5 μM, 24 h, then PMA 100 ng/mL 24 h.
Experimental: The SW1353 cells were grown at 37° C. in a humidified incubator under 5% CO2 and 95% air in the culture medium as described above. The SW1353 cells were then sub-cultured into 6-well culture plates with serum free medium at an average amount of 2×10^5 cells per well and incubated for 24 hours. Then, the SW1353 cells were treated with 10 μM UO126 (MEK1-specific inhibitor), 25 μM, SP600125 (JNK-specific inhibitor), 5 μM SB203580 (p38-specific inhibitor), or 20 μM LY294002 (PI3K kinase inhibitor), and incubated for another 24 hours. Later, the SW1353 cells were treated with 100 ng/mL PMA and again incubated for 24 hours. Finally, the SW1353 cells were under cell extraction and the cell lysate was used for further luciferase analysis and western blotting analysis.
The SW1353 cells were grown at 37° C. in a humidified incubator under 5% CO2 and 95% air in the culture medium as described above. The SW1353 cells were then sub-cultured into 24-well culture plates and cultured for 24 hours. […] Following cell extraction, the cell lysate was centrifuged at 4° C., 20000 g for 30 minutes and then transferred to a 1.5 ml-microcentrifuge tube. Then, 100 μl buffer A (0.1 mM luciferin) and 350 μl buffer B (1 M MgSO4, 1 M Hepes (pH 7.8), 0.1 M ATP) were added into the microcentrifuge tube. The luciferase activity of final mixture was measured by a luminometer for 30 seconds.
The test system of assay [2] is MMP1. Kind of assay: Western blotting, kinase inhibitors on MMP1 protein expression induced by PMA in SW1353 cells. Particulars: UO126 10 μM, SP600125 25 μM, 24 h, then PMA 100 ng/mL 24 h. The format is cell-based, human. Here is the method:
Western blotting analysis was carried out based on the following procedure. Cells were washed and lysed in 0.2 mL of lysis buffer (1% NP-40, 50 mM Tris-HCl, pH 7.4, 180 mM NaCl, 1 mM EDTA, 1 mM PMSF, 1 mM NaF, 10 mM Na3VO4) for 30 min at 4° C. After centrifugation at 17500 g for 15 min, the supernatants of cell lysate were collected. Protein concentrations of the samples were measured using the bicinchoninic acid (BCA) protein assay kit according to the manufacturer's protocol (Pierce, Rockford, Ill., USA). Equal amounts of protein samples of concentrated conditioned medium (100 μg) or cell lysate supernatants (50 μg) were mixed with an appropriate volume of 4×SDS sampling buffer and separated on a 8% SDS-PAGE gel. The protein bands separated on the SDS-PAGE gel were blotted onto a polyvinylidene fluoride (PVDF) membrane. The blotted PVDF membrane was washed twice and blocked in freshly prepared Tris-buffered saline (TBS) containing 0.1% Tween-20 and 7% skim milk (TBST) for 2 hours at room temperature. The PVDF membrane was then incubated with a primary antibody against MMP1 protein (Santa Cruz Biotechnology, Santa Cruz, Calif.) for 18 hours at 4° C. Horseradish peroxidase-conjugated anti-goat antibody was used as the secondary antibody. Signals were visualized by an enhanced chemiluminescence kit (Clonetech, Palo Alto, Calif., USA) followed by exposure to X-ray films. […]

`N#CC(=C(/N)Sc1ccccc1N)/C(C#N)=C(/N)Sc1ccccc1N` [UO126]: the “luciferase activity (control group 1 fold, PMA-only group 8 fold)” value in the assay with MMP1 [1] came out at 2.6 fold. Also, the “protein expression by western blotting (effect of kinase inhibitors on MMP1 protein expression induced by PMA)” value in the assay with MMP1 [2] is reported as “significantly reduced”.
